Tests used:
[1] = women with history of prior spontaneous preterm birth, clinical trials; cited from earlier work
[2] = Pharmacokinetics in pregnant patients given intramuscular hydroxyprogesterone caproate; settings: female, human, plasma, im, 250 mg; for AUC: AUC(1-t); for AUC / Cmax / Tmax: 250 mg intramuscular; for AUC / Cmax: mean (standard deviation)
Method: (§2) Female patients with a singleton pregnancy received intramuscular doses of 250 mg hydroxyprogesterone caproate for the reduction of preterm birth starting between 16 weeks 0 days and 20 weeks 6 days. More particularly, the patients were divided into three sample groups: Group 1 (patients at 16-20 weeks gestation); Group 2 (patients at 24-28 weeks gestation); and Group 3 (patients at 32-36 weeks gestation). All patients had blood drawn daily for 7 days to evaluate pharmacokinetics.

human myometrial tissue = assay: Oxytocin-induced uterine contractility in human myometrial tissue strips (myograph); assay type: cell-based; settings: oxytocin 100 nm; for oxytocin-induced contractile frequency / oxytocin-induced contractile force (AUC): 10^−6 M for 30 minutes, over a 4-hour period, normalized to matched vehicle control (DMSO)
Method: In this Example, the effect of the monohydroxylated 17α-hydroxyprogesterone caproate (HPC-OH), 17α-hydroxyprogesteryl 6-hydroxycaproate, as compared to its parent compound, 17-hydoxyprogesterone caproate (HPC), and progesterone (P4) was analyzed in the setting of oxytocin-induced uterine contractility in human myometrial tissue. […] Myometrial strips (10 mm) were mounted in a digital myograph system ([…]) and maintained in modified Krebs buffer solution at physiologic temperature (37° C.) with constant premixed gas inflow. Oxytocin-induced (100 nm) contractility was measured before and after treatment with HPC-OH, HPC, or P4 (1 μm) for 30 minutes. Myometrial contractile frequency and force (AUC) were determined for each treatment over a 4-hour period and normalized to a matched vehicle control (DMSO). Statistical analysis was by student t-test (GraphPad Prism 7.0a). Statistical significance was defined as p<0.05.

THP-1 mononuclear cells = assay: LPS-induced cytokine production by THP-1 mononuclear cells (multiplex assay); assay type: cell-based; settings: 100 nM for 24 hours, then LPS 1 μg/mL for 24 hours
Method: In this Example, the ability of HPC—OH to decrease systemic inflammation-induced myometrial contractility was compared to HPC and progesterone (P4).
(§1) An in vitro model of systemic inflammation-induced uterine contractility was created with mononuclear and myometrial cell cultures to assess the effect of progestogen treatment. THP-1 mononuclear cells were cultured with HPC—OH (17α-hydroxyprogesteryl 6-hydroxycaproate), HPC, or P4 (all at 100 nM) for 24 hours then treated with lipopolysaccharide (LPS, 1 μg/mL) for 24 hours. Culture supernatant was characterized by multiplex assay for 7 inflammation-related cytokines: IL-1α, […], IL-6, IL-8, IL-10, TNFα, and MCP-1. Next, PHM1-41 human pregnancy myometrial cells pretreated with HPC for 24 hours were incubated with THP-1 culture supernatant (from the previous step) for 24 hours. Myometrial contractility was assessed after stimulation with 100 μM oxytocin by in-cell western (ICW) quantification of myosin light chain (MLC20) phosphorylation, a molecular event preceding contractility.

[3] = tested on: PHM1-41 human pregnancy myometrial cells; assay: MLC20 phosphorylation by in-cell western in HPC-primed myometrial cells incubated with THP-1 culture supernatant; assay type: cell-based; settings: supernatant of treated THP-1 cells for 24 hours, 100 μM oxytocin
Method: as §1

[4] = human, in vivo
Method: as §2

[5] = Group 1 (16-20 weeks gestation, N = 6)
[6] = Group 2 (24-28 weeks gestation, N = 8)
[7] = Group 3 (32-36 weeks gestation, N = 11)

Q: For CCCCCC(=O)O[C@]1(C(C)=O)CC[C@H]2[C@@H]3CCC4=CC(=O)CC[C@]4(C)[C@H]3CC[C@@]21C [HPC, 17α-hydroxyprogesterone caproate], which “risk reduction of recurrent preterm delivery” value [1] is on record?
A: The value was 33%.

Q: And the half-life [2]?
A: The half-life was 394 h.

Q: What about the AUC [2, 5] of the same molecule?
A: Its AUC is 571 ng·h/mL.

Q: And the AUC [2, 6]?
A: Its AUC is 1270 ng·h/mL.

Q: What about the AUC [2, 7] of the same molecule?
A: The AUC was 1270 ng·h/mL.

Q: And the Cmax [2, 5]?
A: Its Cmax is 5 ng/mL.

Q: What about the Cmax [2, 6] of the same molecule?
A: The Cmax was 12.5 ng/mL.

Q: What about the Cmax [2, 7] of the same molecule?
A: The Cmax was 12.3 ng/mL.

Q: What about the Tmax [2, 5] of the same molecule?
A: Its Tmax is 132 h.

Q: What about the Tmax [2, 6] of the same molecule?
A: The Tmax was 24 h.

Q: And the Tmax [2, 7]?
A: The Tmax was 48 h.

Q: And the oxytocin-induced contractile frequency (human myometrial tissue)?
A: The oxytocin-induced contractile frequency was 71%+/−15%.

Q: And the “production of IL-10” value (THP-1 mononuclear cells)?
A: Its value is “significantly reduced”.

Q: What about the “production of MCP-1” value (THP-1 mononuclear cells) of the same molecule?
A: The value was “decreased”.

Q: What about the “significantly increase TNFα production” value (THP-1 mononuclear cells) of the same molecule?
A: The value was “significantly increase”.

Q: With CC(=O)[C@@]1(OC(=O)CCCCCO)CC[C@H]2[C@@H]3CCC4=CC(=O)CC[C@]4(C)[C@H]3CC[C@@]21C [HPC—OH, 17α-hydroxyprogesteryl 6-hydroxycaproate] as the molecule, how does the “MLC20 phosphorylation compared with HPC treated supernatant” value ([3]; versus HPC treated supernatant) read?
A: Its value is “trended towards a significant decline”.

Q: What about the “half-life as compared to HPC” value [4] of the same molecule?
A: The value was “longer half-life”.

Q: And the “oxytocin-induced contractile force (AUC)” value (human myometrial tissue)?
A: Its value is 66%+/−33%.

Q: What about the oxytocin-induced contractile frequency (human myometrial tissue) of the same molecule?
A: Its oxytocin-induced contractile frequency is 67%+/−21%.

Q: What about the “contractile force when compared directly to HPC” value (human myometrial tissue; 10^−6 M, compared directly to HPC) of the same molecule?
A: Its value is 64%+/−33%.

Q: And the “monocyte production of IL-1α” value (THP-1 mononuclear cells)?
A: Its value is “did not result in a statistically significant change”.

Q: And the “monocyte production of IL-1β” value (THP-1 mononuclear cells)?
A: Its value is “did not result in a statistically significant change”.

Q: And the “monocyte production of IL-6” value (THP-1 mononuclear cells)?
A: Its value is “did not result in a statistically significant change”.

Q: What about the “monocyte production of IL-8” value (THP-1 mononuclear cells) of the same molecule?
A: The value was “did not result in a statistically significant change”.

Q: What about the “production of IL-10” value (THP-1 mononuclear cells) of the same molecule?
A: Its value is “did not diminish”.

Q: And the “production of MCP-1” value (THP-1 mononuclear cells)?
A: Its value is “decreased”.

Q: What about the “significantly increase TNFα production” value (THP-1 mononuclear cells) of the same molecule?
A: The value was “not”.

Q: What about the “levels of TNFα produced, compared with exposure to HPC” value (THP-1 mononuclear cells; versus HPC) of the same molecule?
A: Its value is “significantly lower”.

Q: With CC(=O)[C@H]1CC[C@H]2[C@@H]3CCC4=CC(=O)CC[C@]4(C)[C@H]3CC[C@]12C [P4, progesterone] as the molecule, how does the MLC20 phosphorylation [3] read?
A: The MLC20 phosphorylation was “Increased phosphorylation”.

Q: What about the “oxytocin-induced contractile force (AUC)” value (human myometrial tissue) of the same molecule?
A: Its value is 75%+/−30%.

Q: What about the oxytocin-induced contractile frequency (human myometrial tissue) of the same molecule?
A: The oxytocin-induced contractile frequency was 63%+/−18%.

Q: What about the “production of IL-10” value (THP-1 mononuclear cells) of the same molecule?
A: Its value is “did not diminish”.
